# Results reported in patent US6080762A, “Pulmonary and nasal delivery of raloxifene” (priority 1999, dated 2000).
# Legend:
# [1] = cynomolgus monkey, in vivo
# [2] = cynomolgus monkey, in vivo; remark: listed apart in the source
# Description: (§1) Six adult cynomolgus monkeys (three males and three females) were used for this study. Males weighed from 5.3 kg to 5.5 kg at the start of the live phase. Females weighed from 3.8 kg to 4.9 kg at the start of the live phase. Each animal was uniquely identified with a number tattooed on the inner thigh.
# (§2) The animals were housed individually in stainless steel cages. Rooms were thermostatically set to maintain a temperature of 72° F. and maintain an actual temperature within 8° F. from that set point. The environmental control system is designed to maintain a relative humidity of 20% and a maximum of 80%. Light was on a 12 hour cycle, with lights on between 0600 and 1800. […] On test days, the animals were given primate chow only after the completion of the inhalation exposures. Water was available ad libitum except during exposure times.
# (§3) Prior to beginning the live phase of the study, the monkeys were conditioned, over an approximately 3 month period, to be caught, handled, and placed in a restraint chair using the pole-and-collar method. Foods like peanuts, marshmallows, and a variety of dried and fresh fruits were used as training rewards. The time that the monkeys were left in the chair was increased gradually up to 8 hours. By the end of the training period, all the monkeys could be caught quickly, placed into the restraint chair easily, and would allow limb manipulation, including having blood drawn, while in the chair.
# (§4) Each monkey was studied once per week for 5 weeks. Target concentrations of raloxifene activity were 0, 3, 10, 0, and 30 mg/m^3 for Weeks 1 through 5 respectively. The activity was determined by correcting the amount of raloxifene collected by the potency of the lot used. Each exposure was for 8 hours, divided into 4 hour segments with 15 minutes in between. During the 15 minute period between the 4 hour exposures, the monkeys were offered juice to drink and apple pieces to eat. The conditioning period described above had used this method to keep the animals from becoming agitated due to hunger or thirst. A 15 minute break in the exposures was not expected to affect the blood levels of raloxifene.
# (§5) The monkeys were placed into the restraint prior to each exposure. Two sheets of latex (0.030 in. thick) were placed around the animal's necks to form a seal. A 7-L head dome was placed over the animal's heads as described in J. Appl. […] Airflow of 15 L/min was maintained through the head dome via a calibrated transvector on the exhaust port. The raloxifene was aerosolized using a Wright Dust Feed II. […] The aerosol then entered the head-dome for the monkey to breath.
# (§6) Each day, before the monkeys were exposed, the exposure system was set up and a gravimetric sample was taken to determine the raloxifene concentration. The monkey was then placed in the chair and the aerosol was generated using the same generator settings. After the exposure to the monkey, it was removed from the chair, the system re-assembled, and another gravimetric sample taken. The concentrations derived from the 2 gravimetric samples were averaged to obtain the raloxifene concentration for that exposure. Gravimetric concentrations were determined by collecting the aerosol directly from the head-dome onto a 25 mm Gelman type A/E glass fiber filter.
# [3] = Pharmacokinetics of inhaled (pulmonary/nasal) aerosolized raloxifene in cynomolgus monkeys (Working Example 1)
# Description: as §1, §2, §3, §4, §5, §6
smiles,measurement,setting,value
O=C(c1ccc(OCCN2CCCCC2)cc1)c1c(-c2ccc(O)cc2)sc2cc(O)ccc12 [raloxifene],breathing frequency,[1],no significant changes
same,tidal volume,[1],no significant changes
same,blood levels of raloxifene (level and duration),[2],relatively higher blood levels of raloxifene which lasted for several hours
same,initial levels of unmetabolized raloxifene absorbed into the blood,[2],"higher, relative to oral delivery"
same,Cmax (Mean Ralox.),"[3]; 8 h inhalation, exposure conc. 3.3 mg Ralox./m^3 of air, plasma",7 ng/mL
same,Cmax (Mean Ralox.),"[3]; 8 h inhalation, exposure conc. 9.7 mg Ralox./m^3 of air, plasma",17 ng/mL
same,Cmax (Mean Ralox.),"[3]; 8 h inhalation, exposure conc. 26.9 mg Ralox./m^3 of air, plasma",47 ng/mL
same,AUC ratio of raloxifene/total raloxifene,"[3]; inhalation, 10 mg/m^3 dose group",0.56
same,AUC ratio of raloxifene/total raloxifene,"[3]; inhalation, 30 mg/m^3 dose group",0.82
same,"sex differences in raloxifene, total raloxifene, Cmax, or AUC values","[3]; inhalation, males and females",No appreciable sex differences
same,blood levels by pulmonary/nasal delivery relative to oral administration,[3]; oral administration at an equivalent dose as comparison,considerably higher than those obtained following oral administration
same,bioavailability,[3]; pulmonary/nasal delivery,unexpected high level of bioavailability
same,Cmax (Mean Tot. Ralox.),"[3]; total raloxifene, 8 h inhalation, exposure conc. 26.9 mg Ralox./m^3 of air, plasma",84 ng/mL
